The values below come from patent publication US20250066363A1, “Bicyclic DGK Inhibitors” (Incyte Corporation, priority 2023, published 2025).

Each structure is given as a SMILES string.

Assay [1] has as its target DGKζ (Homo sapiens (Human), UniProt Q13574). Briefly: In vitro DGKζ inhibition assay (ADP-Glo). Format: biochemical. The settings on record: second column of Table A, head printed DGKα, presumably DGKζ; His-tagged human recombinant DGKζ 0.4 nM, 30 μM ATP, 20 μM DLG. On the procedure: (§1) The DGKα and DGKζ biochemical reactions were performed using His-tagged human recombinant enzymes (Signal Chem, DGKα, #D21-10BH; DGKζ, #D30-1OH)) and DLG (Dilauroyl-sn-glycerol) lipid substrate (Signal Chem, #D430-59). ADP-Glo assay was performed using ADP-Glo™ kinase Assay kit (Promega, #V9104). The reactions were carried out in assay buffer containing 40 mM Tris, pH 7.5, 0.1% CHAPS, 0.1% Prionex, 40 mM NaCl, 5 mM MgCl2, 1 mM CaCl2, and 1 mM DTT. DGKα reactions contained 0.1 nM DGKα, 50 μM ATP, and 20 μM DLG. And DGKζ reactions contained 0.4 nM DGKζ, 30 μM ATP, and 20 μM DLG.
(§2) For compound inhibition studies, 40 nL test compound in DMSO was added to wells of white polystyrene plates in 384-well (Greiner, #784075) or 1536-well format (Greiner, #782075). Compounds were added with top concentration of 2 mM with 11 point, 3-fold dilution series. Enzyme solution (contains 2× DGK enzyme concentration in 1× assay buffer) was added to the plate in 2 μL/well volume, followed by 2 μL/well of substrate solution (contains 2× concentration of ATP and DLG substrate in 1× assay buffer). Plates were then centrifuged for 1 min at 1200 RPM and sealed or lidded. For 4 μL reaction volume, test compounds were therefore diluted 100× to final top concentration of 20 μM. After 90 minute incubation, reactions were quenched by addition of 2 μL/well Promega ADP-Glo Reagent, followed by centrifugation and lidding. After 60 min incubation, 2 μL/well Promega Kinase Detection Reagent was added, plates centrifuged, and incubated for 30 min. Plates were then read using Luminescence method on BMG PHERAstar FSX plate reader. Percent inhibition was calculated and IC50s were determined using 4-parameter fit in Genedata Screener. Labcyte Echo acoustic dispenser was used for compound addition, and Formulatrix Tempest liquid handler was used for all reagent dispenses.

Assay [2] addresses DGKα (Homo sapiens (Human), UniProt P23743). Put plainly: In vitro DGKα inhibition assay (ADP-Glo). Format: biochemical. To be noted: first column of Table A. The protocol: as §1, §2
Background: ADP-Glo turns the ADP formed in a reaction into a luminescent signal.

Where [3] appears, read: His-tagged human recombinant DGKα 0.1 nM, 50 μM ATP, 20 μM DLG.

Sequence of DGKζ (Q13574 whole entry): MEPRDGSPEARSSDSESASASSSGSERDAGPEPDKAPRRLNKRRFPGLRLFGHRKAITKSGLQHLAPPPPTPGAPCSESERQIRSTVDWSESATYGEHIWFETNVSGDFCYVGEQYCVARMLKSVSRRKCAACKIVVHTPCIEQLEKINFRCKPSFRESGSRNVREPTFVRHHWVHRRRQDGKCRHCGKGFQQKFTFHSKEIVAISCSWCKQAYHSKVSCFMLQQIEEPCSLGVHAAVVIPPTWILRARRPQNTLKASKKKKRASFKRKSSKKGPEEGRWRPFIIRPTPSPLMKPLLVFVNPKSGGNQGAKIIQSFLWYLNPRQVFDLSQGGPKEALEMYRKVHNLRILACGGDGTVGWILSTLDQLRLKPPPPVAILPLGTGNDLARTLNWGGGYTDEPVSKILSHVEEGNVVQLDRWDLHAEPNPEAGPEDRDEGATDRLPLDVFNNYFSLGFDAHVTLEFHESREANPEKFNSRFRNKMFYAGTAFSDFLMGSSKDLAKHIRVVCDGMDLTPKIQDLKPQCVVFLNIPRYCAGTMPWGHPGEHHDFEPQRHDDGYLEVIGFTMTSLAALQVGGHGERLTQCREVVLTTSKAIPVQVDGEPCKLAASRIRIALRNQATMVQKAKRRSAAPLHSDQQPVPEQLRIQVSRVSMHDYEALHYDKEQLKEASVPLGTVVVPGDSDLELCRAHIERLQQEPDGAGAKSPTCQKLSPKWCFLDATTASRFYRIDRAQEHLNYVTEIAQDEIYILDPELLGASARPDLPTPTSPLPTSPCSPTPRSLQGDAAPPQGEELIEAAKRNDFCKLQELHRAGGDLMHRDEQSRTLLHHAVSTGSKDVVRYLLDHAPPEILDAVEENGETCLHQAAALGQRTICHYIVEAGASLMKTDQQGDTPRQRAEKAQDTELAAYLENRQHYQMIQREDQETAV
Sequence of DGKα (P23743 whole entry): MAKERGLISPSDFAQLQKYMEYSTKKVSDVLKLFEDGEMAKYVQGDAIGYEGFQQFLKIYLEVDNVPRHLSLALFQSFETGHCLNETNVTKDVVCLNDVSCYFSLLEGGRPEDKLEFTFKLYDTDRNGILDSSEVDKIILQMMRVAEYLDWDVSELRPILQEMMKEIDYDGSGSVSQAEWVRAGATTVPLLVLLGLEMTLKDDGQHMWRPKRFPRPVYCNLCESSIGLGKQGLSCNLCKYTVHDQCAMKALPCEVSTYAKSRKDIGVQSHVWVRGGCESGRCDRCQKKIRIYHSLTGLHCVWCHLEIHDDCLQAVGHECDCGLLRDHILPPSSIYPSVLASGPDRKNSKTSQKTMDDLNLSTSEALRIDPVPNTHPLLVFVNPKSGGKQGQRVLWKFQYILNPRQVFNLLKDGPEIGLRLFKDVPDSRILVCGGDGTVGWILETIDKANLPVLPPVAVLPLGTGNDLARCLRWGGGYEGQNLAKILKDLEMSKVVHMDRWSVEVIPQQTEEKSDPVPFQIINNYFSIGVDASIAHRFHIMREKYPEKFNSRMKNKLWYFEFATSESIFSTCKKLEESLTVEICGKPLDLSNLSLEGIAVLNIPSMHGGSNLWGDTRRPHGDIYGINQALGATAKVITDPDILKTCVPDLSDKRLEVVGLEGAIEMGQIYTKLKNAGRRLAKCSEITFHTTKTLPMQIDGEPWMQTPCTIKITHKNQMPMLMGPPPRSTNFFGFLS

On to `CC[C@@H]1CN(c2nc(=O)n(C)c3c2nc(C)n3C[C@@H]2CCCO2)[C@@H](C)CN1[C@@H](CC)c1ccc(Cl)cc1` [Example 24, 6-((2S,5R)-4-((S)-1-(4-Chlorophenyl)propyl)-5-ethyl-2-methylpiperazin-1-yl)-3,8-dimethyl-9-(((S)-tetrahydrofuran-2-yl)methyl)-3,9-dihydro-2H-purin-2-one], for which the IC50 in assay [1] and in assay [2] (setting [3]) was not above 10 nM each time.
With `CC[C@@H]1CN(c2nc(=O)n(C)c3c2nc(C)n3C[C@@H]2CCCO2)[C@@H](C)CN1[C@H](c1ccc(C(F)(F)F)cc1)C(C)C` [Example 59, 6-((2S,5R)-5-Ethyl-2-methyl-4-((S)-2-methyl-1-(4-(trifluoromethyl)phenyl)propyl)piperazin-1-yl)-3,8-dimethyl-9-(((S)-tetrahydrofuran-2-yl)methyl)-3,9-dihydro-2H-purin-2-one], the IC50 in assay [1] and in assay [2] (setting [3]) was not above 10 nM each time.
For `CC[C@@H]1CN(c2nc(=O)n(C)c3c2nnn3C[C@H]2CCCO2)[C@@H](C)CN1[C@@H](CC)c1ccc(Cl)cc1` [Example 26, 7-((2S,5R)-4-((S)-1-(4-Chlorophenyl)propyl)-5-ethyl-2-methylpiperazin-1-yl)-4-methyl-3-(((R)-tetrahydrofuran-2-yl)methyl)-3,4-dihydro-5H-[1,2,3]triazolo[4,5-d]pyrimidin-5-one], the IC50 in assay [1] and in assay [2] (setting [3]) was not above 10 nM each time.
On to `CC[C@@H]1CN(c2nc(=O)n(C)c3c2nc(C)n3C[C@@H]2CCCO2)[C@@H](C)CN1[C@@H](CC)c1ccc(C(F)(F)F)cc1` [Example 28, 6-((2S,5R)-5-Ethyl-2-methyl-4-((S)-1-(4-(trifluoromethyl)phenyl)propyl)piperazin-1-yl)-3,8-dimethyl-9-(((S)-tetrahydrofuran-2-yl)methyl)-3,9-dihydro-2H-purin-2-one], for which the IC50 in assay [1] and in assay [2] (setting [3]) was not above 10 nM each time.
For the compound `CC[C@@H]1CN(c2nc(=O)n(C)c3c2nc(C)n3C[C@H]2OCC[C@H]2O)[C@@H](C)CN1[C@@H](CC)c1ccc(C(F)(F)F)cc1` [Example 71, 6-((2S,5R)-5-Ethyl-2-methyl-4-((S)-1-(4-(trifluoromethyl)phenyl)propyl)piperazin-1-yl)-9-(((2R,3R)-3-hydroxytetrahydrofuran-2-yl)methyl)-3,8-dimethyl-3,9-dihydro-2H-purin-2-one], the IC50 in assay [1] and in assay [2] (setting [3]) was not above 10 nM in each case.
On to `CC[C@@H]1CN(c2nc(=O)n(C)c3c2nc(C)n3C[C@@H]2CCCO2)[C@@H](C)CN1C(c1ccc(F)cc1)c1ccc(F)cc1` [Example 5, 6-((2S,5R)-4-(Bis(4-fluorophenyl)methyl)-5-ethyl-2-methylpiperazin-1-yl)-3,8-dimethyl-9-(((S)-tetrahydrofuran-2-yl)methyl)-3,9-dihydro-2H-purin-2-one], for which the IC50 in assay [1] and in assay [2] (setting [3]) was not above 10 nM each time.
As to `CC[C@@H]1CN(c2nc(=O)n(C)c3c2nc(C)n3C[C@@H]2CCCO2)[C@@H](C)CN1C(c1ccc(C(F)(F)F)cc1)C1CC(F)(F)C1` (stereo partly drawn) [Example 38, 6-((2S,5R)-4-((3,3-Difluorocyclobutyl)(4-(trifluoromethyl)phenyl)methyl)-5-ethyl-2-methylpiperazin-1-yl)-3,8-dimethyl-9-(((S)-tetrahydrofuran-2-yl)methyl)-3,9-dihydro-2H-purin-2-one], the IC50 in assay [1] and in assay [2] (setting [3]) was not above 10 nM in each case.
In the case of `Cc1nc2c(N3C[C@@H](C(F)F)N(C(c4ccc(C(F)(F)F)cc4)C4CC(F)(F)C4)C[C@@H]3C)nc(=O)n(C)c2n1C[C@@H]1CCCO1` (single isomer, unassigned) [Example 42], the IC50 in assay [1] and in assay [2] (setting [3]) was not above 10 nM in each case.
Turning to `CC[C@@H]1CN(c2nc(=O)n(C)c3c2nc(C)n3C[C@@H]2CCCO2)[C@@H](C)CN1C(c1ccc(Cl)cc1)C1CC(F)(F)C1` (stereo partly drawn) [Example 37, 6-((2S,5R)-4-((4-Chlorophenyl)(3,3-difluorocyclobutyl)methyl)-5-ethyl-2-methylpiperazin-1-yl)-3,8-dimethyl-9-(((S)-tetrahydrofuran-2-yl)methyl)-3,9-dihydro-2H-purin-2-one], the IC50 in assay [1] and in assay [2] (setting [3]) was not above 10 nM in each case.
Take `Cc1nc2c(N3C[C@@H](C)N([C@H](c4ccc(C(F)(F)F)cc4)C(C)C)C[C@@H]3C)nc(=O)n(C)c2n1C[C@@H]1CCCO1` [Example 53, 6-((2S,5R)-2,5-Dimethyl-4-((S)-2-methyl-1-(4-(trifluoromethyl)phenyl)propyl)piperazin-1-yl)-3,8-dimethyl-9-(((S)-tetrahydrofuran-2-yl)methyl)-3,9-dihydro-2H-purin-2-one]: the IC50 in assay [1] and in assay [2] (setting [3]) was not above 100 nM throughout.
For the compound `Cc1nc2c(N3C[C@@H](C)N([C@@H](c4ccc(C(F)(F)F)cc4F)C(C)C)C[C@@H]3C)nc(=O)n(C)c2n1C[C@@H]1CCCO1` [Example 52, 6-((2S,5R)-4-((R)-1-(2-Fluoro-4-(trifluoromethyl)phenyl)-2-methylpropyl)-2,5-dimethylpiperazin-1-yl)-3,8-dimethyl-9-(((S)-tetrahydrofuran-2-yl)methyl)-3,9-dihydro-2H-purin-2-one], the IC50 in assay [1] and in assay [2] (setting [3]) was not above 10 nM in each case.
Consider `C[C@@H]1CN(c2nc(=O)n(C)c3c2nnn3C[C@@H]2CCCO2)[C@@H](C)CN1C(c1ccc(C(F)(F)F)cn1)c1ccc(C(F)(F)F)cn1` [Example 32, 7-((2S,5R)-4-(Bis(5-(trifluoromethyl)pyridin-2-yl)methyl)-2,5-dimethylpiperazin-1-yl)-4-methyl-3-(((S)-tetrahydrofuran-2-yl)methyl)-3,4-dihydro-5H-[1,2,3]triazolo[4,5-d]pyrimidin-5-one], for which the IC50 in assay [1] and in assay [2] (setting [3]) was not above 10 nM each time.
As for `CC[C@@H]1CN(c2nc(=O)n(C)c3c2nc(C)n3C[C@@H]2CCCO2)[C@@H](C)CN1[C@@H](C)c1ccc(C(F)(F)F)cc1` [Example 61, 6-((2S,5R)-5-Ethyl-2-methyl-4-((S)-1-(4-(trifluoromethyl)phenyl)ethyl)piperazin-1-yl)-3,8-dimethyl-9-(((S)-tetrahydrofuran-2-yl)methyl)-3,9-dihydro-2H-purin-2-one], the IC50 in assay [1] and in assay [2] (setting [3]) was not above 10 nM throughout.
Regarding `C[C@@H]1CN(c2nc(=O)n(C)c3c2nnn3C[C@H]2CCCO2)[C@@H](C)CN1C(c1ccc(C(F)(F)F)cn1)c1ccc(C(F)(F)F)cn1` [Example 33, 7-((2S,5R)-4-(Bis(5-(trifluoromethyl)pyridin-2-yl)methyl)-2,5-dimethylpiperazin-1-yl)-4-methyl-3-(((R)-tetrahydrofuran-2-yl)methyl)-3,4-dihydro-5H-[1,2,3]triazolo[4,5-d]pyrimidin-5-one], the IC50 in assay [1] and in assay [2] (setting [3]) was not above 10 nM throughout.
Turning to `CC[C@@H]1CN(c2nc(=O)n(C)c3c2nnn3CC2(O)CCC2)[C@@H](C)CN1C(C)c1ccc(C(F)(F)F)cc1` (single isomer, unassigned) [Example 64], the IC50 in assay [1] and in assay [2] (setting [3]) was not above 10 nM each time.
Regarding `CC[C@@H]1CN(c2nc(=O)n(C)c3c2nc(C)n3C[C@@H]2CCCO2)[C@@H](C)CN1[C@@H](c1ccc(C(F)(F)F)cc1)C(C)C` [Example 60, 6-((2S,5R)-5-ethyl-2-methyl-4-((R)-2-methyl-1-(4-(trifluoromethyl)phenyl)propyl)piperazin-1-yl)-3,8-dimethyl-9-(((S)-tetrahydrofuran-2-yl)methyl)-3,9-dihydro-2H-purin-2-one], the IC50 in assay [1] and in assay [2] (setting [3]) was not above 10 nM throughout.
Regarding `CCC(c1ccc(C(F)(F)F)cc1)N1C[C@H](C)N(c2nc(=O)n(C)c3c2ncn3CC2(O)CCCC2)C[C@H]1CC` (single isomer, unassigned) [Example 73], the half-inhibitory concentration (IC50) in assay [1] and in assay [2] (setting [3]) was not above 10 nM throughout.
`Cc1nc2c(N3C[C@@H](C)N(C(c4ccc(F)cc4)c4ccc(F)cc4)C[C@@H]3C)nc(=O)n(C)c2n1C[C@@H]1CCCO1` [Example 2, 6-((2S,5R)-4-(Bis(4-fluorophenyl)methyl)-2,5-dimethylpiperazin-1-yl)-3,8-dimethyl-9-(((S)-tetrahydrofuran-2-yl)methyl)-3,9-dihydro-2H-purin-2-one]: the IC50 in assay [1] and in assay [2] (setting [3]) was not above 10 nM throughout.
Take `Cc1nc2c(N3C[C@@H](CO)N(C(c4ccc(C(F)(F)F)cc4)C4CC(F)(F)C4)C[C@@H]3C)nc(=O)n(C)c2n1C[C@@H]1CCCO1` (stereo partly drawn) [Example 41, 6-((2S,5S)-4-((3,3-Difluorocyclobutyl)(4-(trifluoromethyl)phenyl)methyl)-5-(hydroxymethyl)-2-methylpiperazin-1-yl)-3,8-dimethyl-9-(((S)-tetrahydrofuran-2-yl)methyl)-3,9-dihydro-2H-purin-2-one]: the IC50 in assay [1] was not above 10 nM; in assay [2] (cell prints a figure instead of a class symbol (possibly a misprint of +)), 1 nM.

By IC50 is commonly meant the concentration that inhibits the measured activity by half.
